Reference: patent US20090197880A1 (Genelabs Technologies, Inc., priority 2007, published 2009)

Assay: HCV replicon assay (luciferase) in ET (Huh-lucubineo-ET) cell line
Assay type: cell-based
Conditions: Hepatitis C virus, inhibition of replication relative to no compound control, ET replicon cells, luciferase 48-72 hours; for inhibition at 5 µM: tested at 5 μM; for inhibition at 10 µM: tested at 10 μM, read-out: % inhition at 10 μM
Excerpt: A cell line, ET (Huh-lucubineo-ET) was used for screening of compounds, or pharmaceutically acceptable salts or solvates, described herein for inhibition of HCV RNA dependent RNA polymerase. The ET cell line was stably transfected with RNA transcripts harboring a I389luc-ubi-neo/NS3-3′/ET; replicon with firefly luciferase-ubiquitin-neomycin phosphotransferase fusion protein and EMCV-IRES driven NS3-5B polyprotein containing the cell culture adaptive mutations (E1202G; T1280I; K1846T) (Krieger at al, 2001 and unpublished). The ET cells were grown in DMEM, supplemented with 10% fetal calf serum, 2 mM Glutamine, Penicillin (100 IU/mL)/Streptomycin (100 μg/mL), 1× nonessential amino acids, and 250 μg/mL G418 (“Geneticin”). They were all available through Life Technologies (Bethesda, Md.). The cells were plated at 0.5−1.0×10^4 cells/well in the 96 well plates and incubated for 24 hrs before adding the test compounds. […] Luciferase activity was measured 48-72 hours later by adding a lysis buffer and the substrate (Catalog number Glo-lysis buffer E2661 and Bright-Glo luciferase system E2620 Promega, Madison, Wis.). Cells should not be too confluent during the assay. Percent inhibition of replication was plotted relative to no compound control. Under the same condition, cytotoxicity of the compounds was determined using cell proliferation reagent, WST-1 (Roche, Germany). The compounds showing antiviral activities, but no significant cytotoxicities were chosen to determine the EC50 and TC50, the effective concentration and toxic concentration at which 50% of the maximum inhibition is observed. For these determinations, 6 dilutions of each compound were used. Compounds were typically diluted 3 fold to span a concentration range of 250 fold. EC50 and similarly TC50 values were calculated by fitting % inhibition at each concentration to the following equation:
% inhibition=100%/[(EC50/[I])^b+1]
where b is Hill's coefficient.

Row | Structure (SMILES) | inhibition at 5 µM [%] | inhibition at 10 µM [%]
1 | Fc1ccc(-c2cc(Cn3cc4nc(-c5cccc(F)c5F)nc-4cn3)on2)c(C(F)(F)F)c1 [Compound 101, 2-(2,3-Difluoro-phenyl)-5-[3-(4-fluoro-2-trifluoromethyl-phenyl)-isoxazol-5-ylmethyl]-5H-imidazo[4,5-d]pyridazine] | 80.3 | 92.9
2 | CC(C)Oc1ccc(-c2cc(Cn3cc4nc(-c5cccc(F)c5F)nc-4cn3)on2)cc1 [Compound 102, 2-(2,3-Difluoro-phenyl)-5-[3-(4-isopropoxy-phenyl)-isoxazol-5-ylmethyl]-5H-imidazo[4,5-d]pyridazine] | 99.8 | 99.7
3 | Fc1cccc(-c2nc3cnn(Cc4cc(-c5ccc(C(F)(F)F)cc5C(F)(F)F)no4)cc-3n2)c1F [Compound 103, 5-[3-(2,4-Bis-trifluoromethyl-phenyl)-isoxazol-5-ylmethyl]-2-(2,3-difluoro-phenyl)-5H-imidazo[4,5-d]pyridazine] | 100 | 100
4 | Fc1cccc(-c2nc3cnn(Cc4cc(-c5ccc(Cl)cc5)no4)cc-3n2)c1F [Compound 104, 5-[3-(4-Chloro-phenyl)-isoxazol-5-ylmethyl]-2-(2,3-difluoro-phenyl)-5H-imidazo[4,5-d]pyridazine] | 99.7 | 99.7
5 | CCCOc1ccc(-c2cc(Cn3cc4nc(-c5cccc(F)c5F)nc-4cn3)on2)cc1 [Compound 105, 2-(2,3-Difluoro-phenyl)-5-[3-(4-propoxy-phenyl)-isoxazol-5-ylmethyl]-5H-imidazo[4,5-d]pyridazine] | 99.9 | 99.7
6 | CCCCOc1ccc(-c2cc(Cn3cc4nc(-c5ccccc5F)nc-4cn3)on2)cc1 [Compound 106, 5-[3-(4-Butoxy-phenyl)-isoxazol-5-ylmethyl]-2-(2-fluoro-phenyl)-5H-imidazo[4,5-d]pyridazine] | 99.3 | 99.7
7 | CCCCCOc1ccc(-c2cc(Cn3cc4nc(-c5ccccc5F)nc-4cn3)on2)cc1 [Compound 107, 2-(2-Fluoro-phenyl)-5-[3-(4-pentyloxy-phenyl)-isoxazol-5-ylmethyl]-5H-imidazo[4,5-d]pyridazine] | 98.4 | 99.4
8 | Fc1ccccc1-c1nc2cnn(Cc3cc(-c4ccc(OC(F)(F)F)cc4)no3)cc-2n1 [Compound 108, 2-(2-Fluoro-phenyl)-5-[3-(4-trifluoromethoxy-phenyl)-isoxazol-5-ylmethyl]-5H-imidazo[4,5-d]pyridazine] | 99.9 | 100
9 | COc1ccc(-c2cc(Cn3cc4nc(-c5ccccc5F)nc-4cn3)on2)cc1 [Compound 109, 2-(2-Fluoro-phenyl)-5-[3-(4-methoxy-phenyl)-isoxazol-5-ylmethyl]-5H-imidazo[4,5-d]pyridazine] | 98 | 95.4
10 | CCOc1ccc(-c2cc(Cn3cc4nc(-c5ccccc5F)nc-4cn3)on2)cc1 [Compound 110, 5-[3-(4-Ethoxy-phenyl)-isoxazol-5-ylmethyl]-2-(2-fluoro-phenyl)-55H-imidazo[4,5-d]pyridazine] | 99.4 | 97.4
11 | Fc1ccccc1-c1nc2cnn(Cc3cc(-c4ccccc4)no3)cc-2n1 [Compound 111, 2-(2-Fluoro-phenyl)-5-(3-phenyl-isoxazol-5-ylmethyl)-5H-imidazo[4,5-d]pyridazine] | 16 | 
12 | CC(C)Oc1ccc(-c2cc(Cn3cc4nc(-c5ccccc5F)nc-4cn3)on2)cc1 [Compound 112, 2-(2-Fluoro-phenyl)-5-[3-(4-isopropoxy-phenyl)-isoxazol-5-ylmethyl]-5H-imidazo[4,5-d]pyridazine] | 80.9 | 85.9
13 | Fc1ccccc1-c1nc2cnn(Cc3nc(-c4ccc(Cl)cc4)no3)cc-2n1 [Compound 113, 5-[3-(4-Chloro-phenyl)-[1,2,4]oxadiazol-5-ylmethyl]-2-(2-fluoro-phenyl)-5H-imidazo[4,5-d]pyridazine] | 24.9 | 41.7
14 | Fc1ccccc1-c1nc2cnn(Cc3cc(-c4ccc(C(F)(F)F)cc4C(F)(F)F)no3)cc-2n1 [Compound 114, 5-[3-(2,4-Bis-trifluoromethyl-phenyl)-isoxazol-5-ylmethyl]-2-(2-fluoro-phenyl)-5H-imidazo[4,5-d]pyridazine] | 99.3 | 98.5
15 | Fc1ccc(-c2cc(Cn3cc4nc(-c5ccccc5F)nc-4cn3)on2)c(C(F)(F)F)c1 [Compound 115, 2-(2-Fluoro-phenyl)-5-[3-(4-fluoro-2-trifluoromethyl-phenyl)-isoxazol-5-ylmethyl]-5H-imidazo[4,5-d]pyridazine] | 67.6 | 75.3
16 | Fc1ccccc1-c1nc2cnn(Cc3cc(-c4ccc(Cl)cc4)no3)cc-2n1 [Compound 116, 5-[3-(4-Chloro-phenyl)-isoxazol-5-ylmethyl]-2-(2-fluoro-phenyl)-5H-imidazo[4,5-d]pyridazine] | 92.1 | 92.8
17 | CCCOc1ccc(-c2cc(Cn3cc4nc(-c5ccccc5F)nc-4cn3)on2)cc1 [Compound 117, 2-(2-Fluoro-phenyl)-5-[3-(4-propoxy-phenyl)-isoxazol-5-ylmethyl]-5H-imidazo[4,5-d]pyridazine] | 99.8 | 99.1
18 | Nc1ccccc1-c1nc2cnn(Cc3cc(-c4ccc(C(F)(F)F)cc4C(F)(F)F)no3)cc-2n1 [Compound 119, 2-{5-[3-(2,4-Bis-trifluoromethyl-phenyl)-isoxazol-5-ylmethyl]-5H-imidazo[4,5-d]pyridazine-2-yl}-phenylamine] |  | 0
19 | NC(=O)c1ccccc1-c1nc2cnn(Cc3cc(-c4ccc(C(F)(F)F)cc4C(F)(F)F)no3)cc-2n1 [Compound 133, 2-{5-[3-(2,4-Bis-trifluoromethyl-phenyl)-isoxazol-5-ylmethyl]-5H-imidazo[4,5-d]pyridazin-2-yl}-benzamide] |  | 10.1
20 | Oc1ccccc1-c1nc2cnn(Cc3cc(-c4ccc(C(F)(F)F)cc4C(F)(F)F)no3)cc-2n1 [Compound 134, 2-{5-[3-(2,4-Bis-trifluoromethyl-phenyl)-isoxazol-5-ylmethyl]-5H-imidazo[4,5-d]pyridazin-2-yl}-phenol] |  | 0.51
21 | FC(F)(F)c1ccc(-c2nc3cnn(Cc4cc(-c5ccc(C(F)(F)F)cc5C(F)(F)F)no4)cc-3n2)cc1 [Compound 135, 5-[3-(2,4-Bis-trifluoromethyl-phenyl)-isoxazol-5-ylmethyl]-2-(4-trifluoromethyl-phenyl)-5H-imidazo[4,5-d]pyridazine] |  | 0.79
22 | FC(F)(F)c1ccc(-c2cc(Cn3cc4nc(-c5cccc6[nH]ccc56)nc-4cn3)on2)c(C(F)(F)F)c1 [Compound 136, 5-[3-(2,4-Bis-trifluoromethyl-phenyl)-isoxazol-5-ylmethyl]-2-(1H-indol-4-yl)-5H-imidazo[4,5-d]pyridazine] |  | 5.84
23 | CC(=O)c1ccc(F)c(-c2nc3cnn(Cc4cc(-c5ccc(C(F)(F)F)cc5C(F)(F)F)no4)cc-3n2)c1 [Compound 137, 1-(3-{5-[3-(2,4-Bis-trifluoromethyl-phenyl)-isoxazol-5-ylmethyl]-5H-imidazo[4,5-d]pyridazin-2-yl}-4-fluoro-phenyl)-ethanone] |  | 40.4
24 | CCCOc1ccc(-c2cc(Cn3cc4nc(-c5ccc(OC)cc5)nc-4cn3)on2)cc1 [Compound 138, 2-(4-Methoxy-phenyl)-5-[3-(4-propoxy-phenyl)-isoxazol-5-ylmethyl]-5H-imidazo[4,5-d]pyridazine] |  | 48.8
25 | FC(F)(F)c1ccc(-c2cc(Cn3cc4nc(-c5ccc6[nH]ccc6c5)nc-4cn3)on2)c(C(F)(F)F)c1 [Compound 139, 5-[3-(2,4-Bis-trifluoromethyl-phenyl)-isoxazol-5-ylmethyl]-2-(1H-indol-5-yl)-5H-imidazo[4,5-d]pyridazine] |  | 51.1
26 | Fc1cccc(F)c1-c1nc2cnn(Cc3cc(-c4ccc(C(F)(F)F)cc4C(F)(F)F)no3)cc-2n1 [Compound 140, 5-[3-(2,4-Bis-trifluoromethyl-phenyl)-isoxazol-5-ylmethyl]-2-(2,6-difluoro-phenyl)-5H-imidazo[4,5-d]pyridazine] |  | 82.7
27 | FC(F)(F)c1ccc(-c2cc(Cn3cc4nc(-c5ccco5)nc-4cn3)on2)c(C(F)(F)F)c1 [Compound 142, 5-[3-(2,4-Bis-trifluoromethyl-phenyl)-isoxazol-5-ylmethyl]-2-furan-2-yl-5H-imidazo[4,5-d]pyridazine] |  | 66.3
28 | FC(F)(F)c1ccc(-c2cc(Cn3cc4nc(-c5cccs5)nc-4cn3)on2)c(C(F)(F)F)c1 [Compound 143, 5-[3-(2,4-Bis-trifluoromethyl-phenyl)-isoxazol-5-ylmethyl]-2-thiophen-2-yl-5H-imidazo[4,5-d]pyridazine] |  | 96.1
